Data reported in patent US12234232B2, “Aromatic heterocyclic compound with kinase inhibitory activity” (SHANGHAI ENNOVABIO PHARMACEUTICALS CO., LTD., priority 2018, dated 2025).

How the values were obtained:
JAK1 [1] = molecular target: T1, JAK1 (Homo sapiens, UniProt P23458); assay: Cellular JAK1 activity assay: IL-6-stimulated STAT3 phosphorylation in TF-1 cells; assay type: cell-based; design: endogenous in cells; host or cells: TF-1 cells (ATCC); conditions: IL-6 (30 ng/mL), pSTAT3, read-out: IC50 Cell JAK1
T1 sequence (P23458 whole entry): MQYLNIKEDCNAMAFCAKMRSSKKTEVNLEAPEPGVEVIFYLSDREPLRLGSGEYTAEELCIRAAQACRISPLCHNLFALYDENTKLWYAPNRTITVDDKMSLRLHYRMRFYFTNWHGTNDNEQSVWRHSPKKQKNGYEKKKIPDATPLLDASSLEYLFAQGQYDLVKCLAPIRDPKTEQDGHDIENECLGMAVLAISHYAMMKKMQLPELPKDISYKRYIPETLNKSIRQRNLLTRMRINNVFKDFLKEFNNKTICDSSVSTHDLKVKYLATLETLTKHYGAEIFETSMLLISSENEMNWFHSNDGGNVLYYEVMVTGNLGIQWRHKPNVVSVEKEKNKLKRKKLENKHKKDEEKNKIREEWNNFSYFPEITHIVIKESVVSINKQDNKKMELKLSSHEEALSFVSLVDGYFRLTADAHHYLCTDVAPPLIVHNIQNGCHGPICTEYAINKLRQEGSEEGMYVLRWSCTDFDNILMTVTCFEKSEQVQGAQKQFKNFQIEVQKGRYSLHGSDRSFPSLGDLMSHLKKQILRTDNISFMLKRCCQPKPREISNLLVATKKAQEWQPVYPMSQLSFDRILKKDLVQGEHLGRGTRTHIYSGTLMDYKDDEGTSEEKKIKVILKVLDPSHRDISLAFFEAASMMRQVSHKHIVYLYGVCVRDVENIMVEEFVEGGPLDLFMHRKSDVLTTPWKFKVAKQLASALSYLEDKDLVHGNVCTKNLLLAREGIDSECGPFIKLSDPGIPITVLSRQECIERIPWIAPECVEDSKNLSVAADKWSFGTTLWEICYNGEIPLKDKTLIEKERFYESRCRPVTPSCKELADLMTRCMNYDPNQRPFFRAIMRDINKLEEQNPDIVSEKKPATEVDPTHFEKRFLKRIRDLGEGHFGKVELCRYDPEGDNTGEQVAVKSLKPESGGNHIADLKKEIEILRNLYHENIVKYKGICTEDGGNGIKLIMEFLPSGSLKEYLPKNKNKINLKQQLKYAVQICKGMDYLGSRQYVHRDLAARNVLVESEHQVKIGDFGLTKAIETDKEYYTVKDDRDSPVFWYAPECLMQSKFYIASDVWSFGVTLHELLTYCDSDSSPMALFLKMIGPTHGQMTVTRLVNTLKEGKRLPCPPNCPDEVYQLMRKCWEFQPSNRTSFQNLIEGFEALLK

JAK1 [2] = molecular target: T1, JAK1; assay: Human whole blood JAK1 activity assay: IL-6-induced STAT1 phosphorylation (CD4+ T cells); assay type: cell-based; design: endogenous in cells; conditions: IL-6 (100 ng/mL), read-out: IC50_JAK1 (IL6/pSTAT1)
Experimental: (§1) Compound inhibition of JAK1 and JAK2 activities was measured in human whole blood: inhibition of IL-6-induced STAT1 phosphorylation (CD4+ T cells) and GM-CSF-induced STAT5 phosphorylation (CD33+ cells) in human whole blood were respectively analysized. The experimental procedures are shown as follows:
(§2) 1) Human whole blood was collected into heparinized tubes, and seeded in a 96-well plate at 100 µL/well, and incubated in a cell incubator for 15 minutes.
(§3) 2) Different concentrations of compounds (25 μL/well) were added into desired wells and incubated at 37° C. under 5% CO2 for 30 minutes. The final concentration of DMSO was 0.2%.
(§4) 3) Blood cells were stimulated with recombinant human IL-6 (100 ng/mL) or recombinant human GM-CSF (20 ng/mL) or PBS at 37° C. and 5% CO2 for 20 minutes.
(§5) 4) The blood was treated with pre-warmed 1× Lysis/Fixing Buffer (BD Phosflow) at 37° C. for 10 minutes to lyse erythrocytes and fix leukocytes.
(§6) 5) After the cells were permeabilized with pre-cooled buffer (Perm buffer III) on ice for 60 minutes, anti-pSTAT1 and anti-CD4 antibodies (IL-6 stimulated samples) or anti-pSTAT5 and anti-CD33 antibodies (GM-CSF stimulated samples) were used to stain the samples at 4° C. for 60 minutes.
(§7) 7) The cells were washed twice and resuspended in buffer for FACS analysis (Thermo Attune NxT).

JAK2 [3] = molecular target: T2, JAK2 (Homo sapiens, UniProt O60674); assay: Cellular JAK2 activity assay: EPO-stimulated STAT5 phosphorylation in TF-1 cells; assay type: cell-based; design: endogenous in cells; host or cells: TF-1 cells (ATCC); conditions: EPO (10 U/mL), pSTAT5, read-out: IC50 Cell JAK2
T2 sequence (O60674 whole entry): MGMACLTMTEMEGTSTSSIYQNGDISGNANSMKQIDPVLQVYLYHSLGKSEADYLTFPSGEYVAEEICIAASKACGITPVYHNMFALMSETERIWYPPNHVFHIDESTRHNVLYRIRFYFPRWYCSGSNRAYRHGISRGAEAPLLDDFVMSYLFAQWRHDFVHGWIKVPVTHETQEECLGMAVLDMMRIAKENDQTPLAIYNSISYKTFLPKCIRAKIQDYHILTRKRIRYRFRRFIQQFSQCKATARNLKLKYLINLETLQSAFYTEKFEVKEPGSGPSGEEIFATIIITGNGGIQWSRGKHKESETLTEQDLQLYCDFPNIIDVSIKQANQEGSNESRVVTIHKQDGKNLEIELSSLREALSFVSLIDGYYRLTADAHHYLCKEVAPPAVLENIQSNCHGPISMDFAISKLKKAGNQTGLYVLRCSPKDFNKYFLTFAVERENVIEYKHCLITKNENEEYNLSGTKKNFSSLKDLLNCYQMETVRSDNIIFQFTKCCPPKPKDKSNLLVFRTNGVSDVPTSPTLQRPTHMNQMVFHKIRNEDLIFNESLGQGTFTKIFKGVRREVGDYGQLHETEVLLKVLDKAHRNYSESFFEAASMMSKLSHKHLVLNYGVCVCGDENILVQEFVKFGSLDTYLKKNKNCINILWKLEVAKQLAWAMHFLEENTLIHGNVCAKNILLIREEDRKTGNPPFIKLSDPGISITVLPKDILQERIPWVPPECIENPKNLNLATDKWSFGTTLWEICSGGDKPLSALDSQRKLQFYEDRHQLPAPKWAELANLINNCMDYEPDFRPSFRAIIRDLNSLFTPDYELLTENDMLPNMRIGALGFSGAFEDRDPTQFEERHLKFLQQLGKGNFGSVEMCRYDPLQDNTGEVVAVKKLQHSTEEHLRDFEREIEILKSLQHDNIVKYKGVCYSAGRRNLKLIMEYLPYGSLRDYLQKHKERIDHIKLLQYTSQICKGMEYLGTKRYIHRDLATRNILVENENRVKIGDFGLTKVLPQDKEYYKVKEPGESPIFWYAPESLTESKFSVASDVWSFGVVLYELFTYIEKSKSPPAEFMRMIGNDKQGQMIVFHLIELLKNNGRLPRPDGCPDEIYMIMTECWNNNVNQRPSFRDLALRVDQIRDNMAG

JAK2 [4] = molecular target: T2, JAK2; assay: Human whole blood JAK2 activity assay: GM-CSF-induced STAT5 phosphorylation (CD33+ cells); assay type: cell-based; design: endogenous in cells; conditions: GM-CSF (20 ng/mL), read-out: IC50_JAK2 (GM-CSF/pSTAT5)
Experimental: as §1, §2, §3, §4, §5, §6, §7

JAK1 [5] = molecular target: T1, JAK1; assay: In vitro JAK1 kinase activity assay (HTRF kinEASE TK); assay type: biochemical; design: purchased Thermo Fisher; conditions: 1.1 μM ATP, 60 minutes, room temperature; read-out: IC50 JAK1 (enzyme activity assay)
Method in brief: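 HTRF TK assay: 0.5 ng/μl JAK1, 1 μM biotinylated TK peptide, 1.1 μM ATP with MgCl2, MnCl2, DTT, 60 min at room temperature; compounds 10 μM to 0.04 nM, 1% DMSO. Overnight detection with SA-XL665 and TK-antibody; 665/620 ratio to % inhibition, IC50 by 4-parameter fit.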

IC50 (JAK1 [1]): < 100 nM
IC50 (JAK1 [2]): < 500 nM
IC50 (JAK2 [3]): < 10000 nM
IC50 (JAK2 [4]): > 20000 nM
IC50 (JAK1 [5]): < 5 nM
SMILES: CC[C@H](C(=O)Nc1nccc2c(-c3nc(Nc4cn(C)nc4OC)ncc3C)c[nH]c12)N1CCN(C)CC1 [Example 4, (R)—N-(3-(2-((3-Methoxy-1-methyl-1H-pyrazol-4-yl)amino)-5-methylpyrimidin-4-yl)-1H-pyrrolo[2,3-c]pyridin-7-yl)-2-(4-methylpiperazin-1-yl)butanamide]
